The values below come from ChEMBL document CHEMBL5653615 (J Biol Chem, 2013).

Experiment [1] deals with Calcium/calmodulin-dependent protein kinase type II subunit gamma (Homo sapiens) (UniProt Q13555). Nature of the experiment: Inhibition of human CAMK2g at 500 nM by HotSpot assay relative to control.
Experiment [2] has as its target Calcium/calmodulin-dependent protein kinase type 1D (Homo sapiens) (UniProt Q8IU85). Nature of the experiment: Inhibition of human CAMK1d at 500 nM by HotSpot assay relative to control.
The target of experiment [3] is Homeodomain-interacting protein kinase 3 (Homo sapiens) (UniProt Q9H422). Nature of the experiment: Inhibition of human HIPK3 at 500 nM by HotSpot assay relative to control.
Experiment [4] addresses Insulin receptor-related protein (Homo sapiens) (UniProt P14616). Description: Inhibition of human IRR at 500 nM by HotSpot assay relative to control.
Experiment [5] has as its target T1, Mitogen-activated protein kinase kinase kinase kinase 2 (Homo sapiens) (UniProt Q12851).
T1 sequence (whole entry): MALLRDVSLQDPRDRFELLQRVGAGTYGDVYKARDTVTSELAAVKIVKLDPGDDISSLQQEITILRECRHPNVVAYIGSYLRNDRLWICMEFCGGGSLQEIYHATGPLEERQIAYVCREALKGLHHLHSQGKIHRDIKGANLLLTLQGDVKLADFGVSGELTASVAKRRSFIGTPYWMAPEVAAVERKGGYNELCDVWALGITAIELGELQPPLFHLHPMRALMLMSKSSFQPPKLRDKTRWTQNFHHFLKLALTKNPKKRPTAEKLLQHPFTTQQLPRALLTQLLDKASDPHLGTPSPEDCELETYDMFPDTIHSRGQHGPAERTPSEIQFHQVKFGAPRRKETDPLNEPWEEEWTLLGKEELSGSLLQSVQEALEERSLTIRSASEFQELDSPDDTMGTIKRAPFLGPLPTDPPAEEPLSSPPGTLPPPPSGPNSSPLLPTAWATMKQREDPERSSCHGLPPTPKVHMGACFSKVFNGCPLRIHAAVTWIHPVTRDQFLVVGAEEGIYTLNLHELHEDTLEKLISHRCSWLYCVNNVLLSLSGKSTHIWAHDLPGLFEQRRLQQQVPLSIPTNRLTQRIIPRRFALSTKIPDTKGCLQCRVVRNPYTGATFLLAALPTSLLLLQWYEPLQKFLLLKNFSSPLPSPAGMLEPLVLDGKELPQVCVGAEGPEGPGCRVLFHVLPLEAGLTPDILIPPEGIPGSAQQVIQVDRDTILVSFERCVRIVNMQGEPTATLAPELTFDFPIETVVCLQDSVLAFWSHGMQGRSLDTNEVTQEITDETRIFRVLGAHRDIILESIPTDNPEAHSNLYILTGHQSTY
Description: Inhibition of human GCK at 500 nM by HotSpot assay relative to control.

Experiment [6] addresses Calcium/calmodulin-dependent protein kinase type 1G (Homo sapiens) (UniProt Q96NX5). Nature of the experiment: Inhibition of human CAMK1g at 500 nM by HotSpot assay relative to control.
Experiment [7] concerns the target T2, Serine/threonine-protein kinase TAO1 (Homo sapiens) (UniProt Q7L7X3).
T2 sequence (whole entry): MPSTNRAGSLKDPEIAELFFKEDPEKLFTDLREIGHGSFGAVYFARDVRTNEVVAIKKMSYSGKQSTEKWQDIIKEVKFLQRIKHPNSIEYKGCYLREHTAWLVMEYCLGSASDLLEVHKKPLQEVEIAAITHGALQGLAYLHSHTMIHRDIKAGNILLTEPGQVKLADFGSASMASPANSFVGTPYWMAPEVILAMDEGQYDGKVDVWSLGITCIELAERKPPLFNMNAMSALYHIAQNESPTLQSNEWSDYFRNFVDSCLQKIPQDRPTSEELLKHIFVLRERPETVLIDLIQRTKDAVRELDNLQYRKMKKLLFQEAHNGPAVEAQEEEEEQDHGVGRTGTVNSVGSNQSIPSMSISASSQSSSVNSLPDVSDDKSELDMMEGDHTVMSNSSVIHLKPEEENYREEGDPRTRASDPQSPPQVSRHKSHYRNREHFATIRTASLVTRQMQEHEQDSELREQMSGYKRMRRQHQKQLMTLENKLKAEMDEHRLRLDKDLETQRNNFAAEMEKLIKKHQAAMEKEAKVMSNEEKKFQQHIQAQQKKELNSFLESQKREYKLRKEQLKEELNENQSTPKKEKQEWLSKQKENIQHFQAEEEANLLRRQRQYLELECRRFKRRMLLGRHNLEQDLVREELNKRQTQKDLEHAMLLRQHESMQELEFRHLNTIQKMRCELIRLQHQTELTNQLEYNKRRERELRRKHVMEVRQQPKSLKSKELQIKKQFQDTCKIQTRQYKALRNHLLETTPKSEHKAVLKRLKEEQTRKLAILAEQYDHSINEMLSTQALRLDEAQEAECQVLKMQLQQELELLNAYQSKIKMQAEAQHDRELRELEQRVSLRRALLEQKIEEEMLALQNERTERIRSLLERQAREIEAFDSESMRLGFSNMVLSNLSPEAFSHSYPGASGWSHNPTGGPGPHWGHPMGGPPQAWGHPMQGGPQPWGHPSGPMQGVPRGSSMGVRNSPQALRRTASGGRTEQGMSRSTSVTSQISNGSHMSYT
Description: Inhibition of human TAOK1 at 500 nM by HotSpot assay relative to control.

Experiment [8] addresses Calcium/calmodulin-dependent protein kinase kinase 2 (Homo sapiens) (UniProt Q96RR4). Description: Inhibition of human CAMKK2 at 500 nM by HotSpot assay relative to control.
Experiment [9] has as its target Fibroblast growth factor receptor 3 (Homo sapiens) (UniProt P22607). Nature of the experiment: Inhibition of human FGFR3 at 500 nM by HotSpot assay relative to control.
Experiment [10] deals with Tyrosine-protein kinase Fer (Homo sapiens) (UniProt P16591). Nature of the experiment: Inhibition of human FER at 500 nM by HotSpot assay relative to control.
Experiment [11] addresses Calcium/calmodulin-dependent protein kinase type 1 (Homo sapiens) (UniProt Q14012). Description: Inhibition of human CAMK1a at 500 nM by HotSpot assay relative to control.
Experiment [12] has as its target Serine/threonine-protein kinase PAK 6 (Homo sapiens) (UniProt Q9NQU5). Description: Inhibition of human PAK6 at 500 nM by HotSpot assay relative to control.
The target of experiment [13] is Tyrosine-protein kinase Fyn (Homo sapiens) (UniProt P06241). Description: Inhibition of human FYN at 500 nM by HotSpot assay relative to control.
The target of experiment [14] is Protein-tyrosine kinase 2-beta (Homo sapiens) (UniProt Q14289). Nature of the experiment: Inhibition of human PYK2 at 500 nM by HotSpot assay relative to control.
Experiment [15] has as its target Serine/threonine-protein kinase Chk2 (Homo sapiens) (UniProt O96017). Description: Inhibition of human CHK2 at 500 nM by HotSpot assay relative to control.
Experiment [16] deals with Cyclin-dependent kinase 7/ cyclin H (Homo sapiens) (UniProt P51946+P50613). Description: Inhibition of human CDK7/cyclin H at 500 nM by HotSpot assay relative to control. It counts as protein-complex assay.
Experiment [17] deals with Mitogen-activated protein kinase 9 (Homo sapiens) (UniProt P45984). Description: Inhibition of human JNK2 at 500 nM by HotSpot assay relative to control.

Sequence of Calcium/calmodulin-dependent protein kinase kinase 2 (Homo sapiens) (Q96RR4 2-588 limits assumed): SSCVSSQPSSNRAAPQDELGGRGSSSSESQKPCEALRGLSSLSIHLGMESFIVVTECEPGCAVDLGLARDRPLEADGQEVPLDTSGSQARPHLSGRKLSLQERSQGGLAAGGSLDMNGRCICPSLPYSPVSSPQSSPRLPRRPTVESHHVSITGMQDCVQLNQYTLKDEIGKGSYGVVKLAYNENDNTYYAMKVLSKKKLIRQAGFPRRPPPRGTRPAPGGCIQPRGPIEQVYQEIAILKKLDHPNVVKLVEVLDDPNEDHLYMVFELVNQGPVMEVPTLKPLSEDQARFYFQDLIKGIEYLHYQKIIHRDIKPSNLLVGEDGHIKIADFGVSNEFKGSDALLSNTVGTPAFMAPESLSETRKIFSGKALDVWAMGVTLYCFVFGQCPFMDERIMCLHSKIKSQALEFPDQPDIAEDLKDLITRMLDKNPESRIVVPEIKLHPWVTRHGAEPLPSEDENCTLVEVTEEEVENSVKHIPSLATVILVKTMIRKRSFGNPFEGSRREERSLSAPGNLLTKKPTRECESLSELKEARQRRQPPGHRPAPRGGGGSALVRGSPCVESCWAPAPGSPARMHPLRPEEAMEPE
Sequence of Calcium/calmodulin-dependent protein kinase type 1G (Homo sapiens) (Q96NX5 whole entry): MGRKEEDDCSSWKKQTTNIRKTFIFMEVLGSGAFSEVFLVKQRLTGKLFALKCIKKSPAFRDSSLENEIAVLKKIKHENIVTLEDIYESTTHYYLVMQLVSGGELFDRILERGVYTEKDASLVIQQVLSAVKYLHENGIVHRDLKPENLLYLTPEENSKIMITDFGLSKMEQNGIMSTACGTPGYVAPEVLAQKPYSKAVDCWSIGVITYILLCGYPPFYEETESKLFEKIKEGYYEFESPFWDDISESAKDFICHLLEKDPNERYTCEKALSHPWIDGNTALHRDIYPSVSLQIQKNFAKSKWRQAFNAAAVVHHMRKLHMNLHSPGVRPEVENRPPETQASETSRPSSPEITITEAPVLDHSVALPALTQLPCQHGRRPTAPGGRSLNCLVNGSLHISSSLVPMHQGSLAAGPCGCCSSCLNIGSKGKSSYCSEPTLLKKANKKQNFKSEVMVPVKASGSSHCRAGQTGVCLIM
Sequence of Protein-tyrosine kinase 2-beta (Homo sapiens) (Q14289 whole entry, looked up): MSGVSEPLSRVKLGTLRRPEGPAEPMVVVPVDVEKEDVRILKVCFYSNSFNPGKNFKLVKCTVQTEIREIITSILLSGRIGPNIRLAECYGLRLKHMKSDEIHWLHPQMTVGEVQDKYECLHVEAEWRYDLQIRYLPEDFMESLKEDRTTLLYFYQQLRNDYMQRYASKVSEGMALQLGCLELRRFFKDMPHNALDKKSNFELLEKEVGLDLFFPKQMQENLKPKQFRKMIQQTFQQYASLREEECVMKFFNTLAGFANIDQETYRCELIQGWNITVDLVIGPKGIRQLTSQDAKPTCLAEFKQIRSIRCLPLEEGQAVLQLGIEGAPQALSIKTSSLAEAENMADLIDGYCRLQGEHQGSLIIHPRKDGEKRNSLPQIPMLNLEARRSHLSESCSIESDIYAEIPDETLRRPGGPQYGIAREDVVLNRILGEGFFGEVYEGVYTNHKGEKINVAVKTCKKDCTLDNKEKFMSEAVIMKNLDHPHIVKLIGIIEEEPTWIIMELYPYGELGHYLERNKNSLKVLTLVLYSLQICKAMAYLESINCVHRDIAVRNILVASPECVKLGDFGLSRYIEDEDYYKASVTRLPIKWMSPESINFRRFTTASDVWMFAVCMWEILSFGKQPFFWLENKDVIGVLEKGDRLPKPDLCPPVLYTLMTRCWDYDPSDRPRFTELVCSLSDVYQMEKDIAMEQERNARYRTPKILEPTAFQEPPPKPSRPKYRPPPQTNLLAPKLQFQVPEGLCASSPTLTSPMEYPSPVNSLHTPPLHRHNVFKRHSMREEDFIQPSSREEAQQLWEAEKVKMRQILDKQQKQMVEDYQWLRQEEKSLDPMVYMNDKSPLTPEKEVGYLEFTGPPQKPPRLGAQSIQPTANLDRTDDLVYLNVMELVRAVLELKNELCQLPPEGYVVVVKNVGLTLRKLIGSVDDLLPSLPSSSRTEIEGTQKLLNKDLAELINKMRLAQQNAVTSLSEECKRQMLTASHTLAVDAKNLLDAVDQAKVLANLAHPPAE
Sequence of Homeodomain-interacting protein kinase 3 (Homo sapiens) (Q9H422 whole entry, looked up): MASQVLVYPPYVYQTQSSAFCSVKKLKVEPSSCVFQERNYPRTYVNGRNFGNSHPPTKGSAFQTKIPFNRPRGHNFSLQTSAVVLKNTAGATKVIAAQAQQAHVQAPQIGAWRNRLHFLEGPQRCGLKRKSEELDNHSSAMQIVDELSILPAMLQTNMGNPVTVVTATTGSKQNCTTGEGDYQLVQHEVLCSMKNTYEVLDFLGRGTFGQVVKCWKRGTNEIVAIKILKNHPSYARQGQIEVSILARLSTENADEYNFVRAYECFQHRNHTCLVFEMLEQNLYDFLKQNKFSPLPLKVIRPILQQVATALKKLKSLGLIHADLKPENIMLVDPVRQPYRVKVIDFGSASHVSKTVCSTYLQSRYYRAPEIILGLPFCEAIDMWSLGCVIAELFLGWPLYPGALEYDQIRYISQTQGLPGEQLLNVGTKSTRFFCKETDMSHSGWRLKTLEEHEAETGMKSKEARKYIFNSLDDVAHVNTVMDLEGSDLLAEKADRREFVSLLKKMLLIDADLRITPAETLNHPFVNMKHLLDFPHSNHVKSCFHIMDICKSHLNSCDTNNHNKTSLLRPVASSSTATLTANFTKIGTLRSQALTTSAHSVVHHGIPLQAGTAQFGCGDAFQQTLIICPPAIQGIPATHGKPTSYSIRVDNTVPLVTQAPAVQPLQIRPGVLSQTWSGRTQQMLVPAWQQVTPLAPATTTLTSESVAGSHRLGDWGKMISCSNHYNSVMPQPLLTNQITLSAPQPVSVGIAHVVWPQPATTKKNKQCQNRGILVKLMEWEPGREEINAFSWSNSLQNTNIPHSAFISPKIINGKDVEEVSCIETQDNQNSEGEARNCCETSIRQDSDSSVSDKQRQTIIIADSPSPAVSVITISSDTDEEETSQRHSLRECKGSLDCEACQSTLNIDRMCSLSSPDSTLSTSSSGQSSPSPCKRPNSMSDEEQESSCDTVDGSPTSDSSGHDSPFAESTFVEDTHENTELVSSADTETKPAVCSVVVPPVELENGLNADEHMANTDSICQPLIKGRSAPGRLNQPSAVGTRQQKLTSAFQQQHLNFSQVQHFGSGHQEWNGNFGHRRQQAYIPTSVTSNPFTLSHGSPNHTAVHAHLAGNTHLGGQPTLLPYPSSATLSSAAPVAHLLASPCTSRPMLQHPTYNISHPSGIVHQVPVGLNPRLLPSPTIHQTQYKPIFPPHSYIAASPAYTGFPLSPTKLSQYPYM
Sequence of Tyrosine-protein kinase Fer (Homo sapiens) (P16591 whole entry, looked up): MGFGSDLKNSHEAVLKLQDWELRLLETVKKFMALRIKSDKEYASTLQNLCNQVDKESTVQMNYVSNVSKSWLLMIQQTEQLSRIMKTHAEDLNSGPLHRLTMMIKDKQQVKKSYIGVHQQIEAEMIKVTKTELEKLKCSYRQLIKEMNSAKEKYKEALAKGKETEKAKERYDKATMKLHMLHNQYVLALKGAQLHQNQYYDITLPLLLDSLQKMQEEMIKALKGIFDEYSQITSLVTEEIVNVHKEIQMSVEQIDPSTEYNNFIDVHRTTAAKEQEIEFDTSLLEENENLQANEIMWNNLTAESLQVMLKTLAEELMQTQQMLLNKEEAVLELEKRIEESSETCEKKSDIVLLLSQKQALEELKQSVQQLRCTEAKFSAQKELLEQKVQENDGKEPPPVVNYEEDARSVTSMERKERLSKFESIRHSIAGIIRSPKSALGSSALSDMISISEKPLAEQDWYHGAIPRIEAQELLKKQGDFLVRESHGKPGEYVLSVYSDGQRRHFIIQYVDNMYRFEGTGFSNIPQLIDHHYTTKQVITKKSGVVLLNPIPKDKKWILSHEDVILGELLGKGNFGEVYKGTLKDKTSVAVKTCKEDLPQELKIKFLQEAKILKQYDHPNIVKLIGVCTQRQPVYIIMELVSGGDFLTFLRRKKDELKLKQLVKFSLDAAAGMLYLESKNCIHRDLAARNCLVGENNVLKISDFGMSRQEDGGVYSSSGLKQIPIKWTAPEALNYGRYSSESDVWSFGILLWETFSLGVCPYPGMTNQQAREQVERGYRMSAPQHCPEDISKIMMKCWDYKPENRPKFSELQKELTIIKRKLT
Sequence of Serine/threonine-protein kinase PAK 6 (Homo sapiens) (Q9NQU5 whole entry, looked up): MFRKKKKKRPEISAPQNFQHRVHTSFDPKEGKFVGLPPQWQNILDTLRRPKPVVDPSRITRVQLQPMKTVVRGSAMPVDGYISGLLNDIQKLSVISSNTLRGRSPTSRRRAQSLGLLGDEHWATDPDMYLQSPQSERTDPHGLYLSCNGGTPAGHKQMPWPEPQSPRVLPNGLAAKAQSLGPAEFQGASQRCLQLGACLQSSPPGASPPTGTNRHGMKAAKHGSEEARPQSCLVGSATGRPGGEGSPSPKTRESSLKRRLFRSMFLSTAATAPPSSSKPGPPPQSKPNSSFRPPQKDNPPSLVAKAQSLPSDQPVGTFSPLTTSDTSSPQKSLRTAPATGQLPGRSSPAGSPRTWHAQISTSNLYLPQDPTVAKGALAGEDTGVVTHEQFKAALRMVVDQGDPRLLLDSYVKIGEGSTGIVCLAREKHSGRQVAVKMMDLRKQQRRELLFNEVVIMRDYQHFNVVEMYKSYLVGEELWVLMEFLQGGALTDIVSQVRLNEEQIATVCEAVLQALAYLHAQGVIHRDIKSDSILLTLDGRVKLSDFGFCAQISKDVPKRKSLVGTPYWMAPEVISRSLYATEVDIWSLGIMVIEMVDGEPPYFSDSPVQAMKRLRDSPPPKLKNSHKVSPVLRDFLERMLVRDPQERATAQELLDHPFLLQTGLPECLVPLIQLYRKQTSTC

On to `Oc1n[nH]c2nnc(-c3c(-c4ccccc4)nn4ccccc34)cc12`, for which the inhibition in [1] is 2.06%; in experiment [2], -3.04%; in experiment [3], -0.3%; in experiment [4] it was 13.8%; in experiment [5] it was -5.76%; in [6] it was 0.26%. Further, the inhibition in experiment [7] is 1.61%; in [8], 2.27%; in [9] it was -3.4%; in experiment [10], 17.4%; in [11], 0.02%; in [12], 1.63%. Also, the inhibition in experiment [13] was -0.67%; in experiment [14], 2.81%; in experiment [15] it was 1.86%; in experiment [16], 3.04%; in experiment [17], 11.7%.

As to `Nc1n[nH]c2nnc(-c3c(-c4ccccc4)nn4ccccc34)cc12`, the inhibition in experiment [1] is 3.3%; in experiment [2], 4.06%; in [3], -3.93%; in experiment [4], 4.29%; in [5] it was 1.42%; in [6] it was 0.77%. In addition, the inhibition was 4.2% in experiment [7]; -1.27% in experiment [8]; -1.72% in experiment [9]; 9.19% in experiment [10]; -2.35% in [11]; 3.58% in experiment [12]. The inhibition was 4.98% in experiment [13]; 4.57% in experiment [14]; 2.97% in [15]; 0.97% in [16]; 51.6% in experiment [17].
